From patent US4997843A, “2,4-disubstituted derivatives of tetrahydrofuran useful for the treatment of PAF mediated illnesses” (J Uriach & Cia S.A., priority 1987, dated 1991)
Where two headings read alike, the source gives them in different places.

How the values were obtained:
[1] = test system: platelet aggregation induced by PAF; test: Test 1: inhibition of platelet aggregation induced by PAF in vitro (rabbit platelet rich plasma, Born nephelometric technique); format: cell-based, male New Zealand albino rabbits; conditions: PAF C18 16 nM final, read-out: IC50 (concentration of the drug needed to inhibit the platelet aggregation in a 50%)
Description: TEST 1: INHIBITION OF PLATELET AGGREGATION INDUCED BY PAF
The platelet rich plasma (PRP) is prepared by blood centrifugation at 250 xg for 10 min. at 4° C. and it is diluted with platelet poor plasma (PPP) obtained by additional centrifugation at 300 xg for 10 min. The amount of platelets is adjusted to […].

[2] = test system: hypotension induced by PAF; test: Test 2: inhibition of the hypotensive effect induced by PAF in normotense rats; format: in vivo, male Sprague Dawley rats; conditions: anesthetized rats, compound via femoral vein 3 min before PAF (0.5 mg/Kg, i.v.); for ED50: Rattus norvegicus, iv, read-out: IC50 (inhibition of the hypotension induced by PAF)
Description: TEST 2--INHIBITION OF THE HYPOTENSIVE EFFECT INDUCED BY PAF IN NORMOTENSE RATS
Male Sprague Dawley rats, of 180-220 g of weight, anesthetized with sodium pentobarbital (50 mg/Kg, i.p. 1 mL/100 g) have been used. In order to measure the average arterial pressure a polyethylene catheter was introduced into the carotid artery. The arterial pressure was recorded with the help of a transducer connected with a R611 Beckman polygraph. The tested compounds were administrated through the femoral vein 3 min. before the injection of PAF (0.5 mg/Kg, i.v.).

[3] = Oryctolagus cuniculus, Platelet

SMILES | IC50 [1] | IC50 [1, 3] | ED50 [2] | IC50 (inhibition of the hypotension induced by PAF) [2]
CCCCCCCCCCCCCCCCCCOCC1COC(COC(=O)N(Cc2cccc[n+]2C)C(C)=O)C1 (racemic) [Compound 19, (±)-cis, trans-N-methyl-2-[N-acetyl-[[[(4-octadecyloxymethyltetrahydrofuran-2-yl)methoxy]carbonyl]amino]methyl]pyridinium iodide] |  | 0.09 µM | 0.14 mg/kg | 
CCCCCCCCCCCCCCCCCCOCC1COC(COC(=O)N(Cc2cccc[n+]2CC)C(C)=O)C1 (racemic) [Compound 20, (±)-cis, trans-N-ethyl-2-[N-acetyl-[[[(4-octadecyloxymethyltetrahydrofuran-2yl)methoxy]carbonyl]amino]methyl]pyridinium iodide] |  | 0.034 µM | 0.035 mg/kg | 
CCCCCCCCCCCCCCOC[C@H]1CO[C@@H](COC(=O)N(Cc2cccc[n+]2CC)C(C)=O)C1.[Cl-] (racemic) [Compound 25, (±)-cis, trans-N-ethyl-2-[N-acetyl-[[[(4-tetradecyloxymethyltetrahydrofuran-2-yl)methoxy]carbonyl]amino]-methyl]pyridinium chloride] | 0.095 µM |  |  | 0.081 mg/Kg, i.v.
CCCCCCCCCCCCCCCCCNC(=O)OCC1COC(COC(=O)N(Cc2cccc[n+]2CC)C(C)=O)C1 (racemic) [Compound 53, (±)-cis, trans-N-ethyl-2-[N-acetyl-[[[(4-heptadecylaminocarbonyloxymethyltetrahydrofuran-2-yl)methoxy]carbonyl]amino]methyl]pyridinium iodide] |  | 0.027 µM | 0.042 mg/kg | 
CCCCCCCCCCCCCCCCCCOCC1CC(COCCCCCCC[n+]2ccsc2)CO1 (racemic) [Compound 61, (±)-cis, trans-3-[7-[(2-octadecyloxymethyltetrahydrofuran-4-yl)methoxy]heptyl]thiazolium chloride] |  | 2 µM | 2.1 mg/kg | 
CCCCCCCCCCCCCCCCCCOCC1CC(COC(=O)NCc2cccc[n+]2C)CO1 (racemic) [Compound 66, (±)-cis, trans-N-methyl-2-[[[[(2-octadecyloxymethyl-tetrahydrofuran-4-yl)methoxy]carbonyl]amino]methyl]pyridinium iodide] |  | 1.6 µM | 5 mg/kg | 
CCCCCCCCCCCCCCC1COC(COCCCCCCC[n+]2ccsc2)C1 (racemic) [Compound 82, (±)-cis, trans-3-[7-[(4-tetradecyltetrahydrofuran-2-yl)methoxy]heptyl]thiazolium 4-methylbenzenesulfonate] |  | 1.8 µM | 1.5 mg/kg | 
CCCCCCCCCCCCCCCCCCC1COC(COC(=O)N(Cc2cccc[n+]2CC)C(C)=O)C1 (racemic) [Compound 113] |  | 0.2 µM | 0.2 mg/kg | 

Continued, in another order:

IC50 [1] | IC50 [1, 3] | SMILES | ED50 [2] | IC50 (inhibition of the hypotension induced by PAF) [2]
0.022 µM |  | CCCCCCCCCCCCCCCCOCC1COC(COC(=O)N(Cc2cccc[n+]2CC)C(C)=O)C1 (racemic) [Compound 13, (±)-cis, trans-N-ethyl-2-[N-acetyl-[[[(4-hexadecyloxymethyltetrahydrofuran-2-yl)methoxy]carbonyl]amino]methyl]pyridinium iodide] | 0.035 mg/kg | 
 | 0.048 µM | CCCCCCCCCCCCCCCCOCC1COC(COC(=O)N(Cc2cccc[n+]2CC)C(=O)OCC)C1 (racemic) [Compound 15, (±)-cis, trans-N-ethyl-[N-ethoxycarbonyl-[[[(4-hexadecyloxymethyltetrahydrofuran-2-yl)methoxy]carbonyl]amino]methyl]pyridinium iodide] | 0.035 mg/kg | 
 | 0.0045 µM | CCCCCCCCCCCCCCCNC(=O)OCC1COC(COC(=O)N(Cc2cccc[n+]2CC)C(C)=O)C1 (racemic) [Compound 49, (±)-cis, trans-N-ethyl-2-[N-acetyl-[[[(4-pentadecylaminocarbonyloxymethyltetrahydrofuran-2-yl)methoxy]-carbonyl]amino]methyl]pyridinium iodide] | 0.033 mg/kg | 
0.009 µM |  | CCCCCCCCCCCCCCCCOCC1COC(COC(=O)N(Cc2cccc[n+]2CC)C(C)=O)C1 (racemic) [Compound 58, (±)-cis, trans-N-ethyl-2-[N-acetyl-[[[(4-hexadecyloxymethyltetrahydrofuran-2-yl)methoxy]carbonyl]amino]methyl]pyridinium chloride] |  | 0.044 mg/Kg, i.v.
 | 1.5 µM | CCCCCCCCCCCCCCCCCCOCC1CC(COC(=O)CCCCC[n+]2ccsc2)CO1 (racemic) [Compound 64, (±)-cis, trans-3-[6-[(2-octadecyloxymethyltetrahydrofuran-4-yl)methoxy]6-oxohexyl]thiazolium 4-methylbenzenesulfonate] | 1.1 mg/kg | 
 | 0.14 µM | CCCCCCCCCCCCCCCCCCOCC1CC(COC(=O)N(Cc2cccc[n+]2C)C(C)=O)CO1 (racemic) [Compound 68, (±)-cis, trans-N-methyl-2-[N-acetyl-[[[(2-octadecyloxymethyltetrahydrofuran-4-yl)methoxy]carbonyl]amino]methyl]pyridinium iodide] | 0.11 mg/kg | 
 | 2.2 µM | CCCCCCCCCCCCCCC1COC(COCCCCCC[n+]2ccsc2)C1 (racemic) [Compound 70, (±)-cis, trans-3-[6-[(4-tetradecyltetrahydrofuran-2-yl)methoxy]hexyl]thiazolium 4-methylbenzenesulphonate] | 2.2 mg/kg | 
 | 3.4 µM | CCCCCCCCCCCCCCC1COC(COCCCCCC[n+]2cccc3ccccc32)C1 (racemic) [Compound 72, (±)-cis, trans-1-[6-[(4-tetradecyltetrahydrofuran-2-yl)methoxy]hexyl]quinolinium 4-methylbenzenesulfonate] | 3.2 mg/kg | 
 | 0.24 µM | CCCCCCCCCCCCCCC1COC(COC(=O)N(Cc2cccc[n+]2C)C(C)=O)C1 (racemic) [Compound 109, (±)-cis,trans-N-methyl-2-[N-acetyl-[[[(4-tetradecyltetrahydrofuran-4-yl]methoxy]carbonyl]amino]methyl]pyridinium iodide] | 0.39 mg/kg | 
